Values quoted from earlier work as cited in US20040034042A1, “Preservative composition” (priority 2002, published 2004).

What was measured:
[1] = system: Rhizopus, Penicillium and like fungi; conditions: literature statement; effects called insufficient

SMILES: Cn1c(=O)c2c(ncn2C)n(C)c1=O [caffeine]
- antibacterial activity to Rhizopus, Penicillium and like fungi [1]: exhibits antibacterial activity
- production of aflatoxin by A. parasiticus (A. parasiticus): inhibits the production of aflatoxin
